From PubChem BioAssay AID1996
In brackets after ≈: the same amount, converted by molar mass.

details: buffer; pH 7.4; 200.0 µM

| SMILES | solubility kinetic |
| --- | --- |
| CNC(=S)Nc1cc(C(=O)N2CCCC2)ccc1N1CCCC1 | > 49.9 µg/mL |
| CC(=O)c1c(C)n(Cc2ccccc2)c2ccc(O)cc12 | 0.7 µg/mL (≈ 2.51 µM) |
| Cc1cc(NC(=O)CSc2nc3cc(Cl)ccc3o2)no1 | 0.5 µg/mL (≈ 1.54 µM) |
| COc1ccccc1CNC(=O)c1cc(C)nc2ccccc12 | 41.8 µg/mL (≈ 136 µM) |
| CCSc1ncc(Cl)c(C(=O)Nc2ccccc2F)n1 | 0.5 µg/mL (≈ 1.6 µM) |
| Cc1sc2ccccc2[n+]1CC(=O)c1ccccc1.[Br-] | 42.6 µg/mL |
| C(=C\c1ccccc1)/CNCC1CCCO1.Cl (centres undefined) | 38 µg/mL |
| O=C(Oc1ccc(OC(=O)N2CCCCC2)cc1)N1CCCCC1 | 1.1 µg/mL (≈ 3.31 µM) |
| COc1ccccc1OCc1ccc(C(=O)NC(C)c2ccccc2)o1 (centres undefined) | 38.1 µg/mL (≈ 108 µM) |
| OC(CC#CCN1CCCCC1)(c1ccccc1)c1ccccc1 | > 47.9 µg/mL |
| Cc1cc2c(cc1C)CN(c1ccccc1)C2 | 7.1 µg/mL (≈ 31.8 µM) |
| O=C1c2cccc3c([N+](=O)[O-])ccc(c23)C(=O)N1CCc1ccccn1 | 0.4 µg/mL (≈ 1.15 µM) |
| CC(CC(=O)NCc1ccc(F)cc1)c1ccccc1 (centres undefined) | > 40.7 µg/mL |
| Cc1ccc(C(=O)Nc2ccncc2)cc1[N+](=O)[O-] | > 38.6 µg/mL |
| CC1CCCC(C)N1C(=O)COC(=O)/C=C/c1ccc(Br)o1 (centres undefined) | 29.8 µg/mL (≈ 80.5 µM) |
| O=C1CC(=O)N(c2cccc(C(F)(F)F)c2)C(=O)N1 | > 40.8 µg/mL |
| Nc1ccccc1C(=O)N1CCCC1 | > 28.5 µg/mL |
| Nc1nnc(SCC(=O)OCC(=O)NC2CCCCC2)s1 | > 49.6 µg/mL |
| CCOc1c(O)ccc(/C=C2\SC(=S)NC2=O)c1[N+](=O)[O-] | 6.8 µg/mL (≈ 20.8 µM) |
| COc1cccc2[nH]c3c(N4CCC5(CC4)OCCO5)ncnc3c12 | > 51.1 µg/mL |

| SMILES | solubility kinetic |
| --- | --- |
| COCCCn1c(=O)c2ccccc2n(Cc2cccc(C)c2)c1=O | 42.6 µg/mL (≈ 126 µM) |
| O=C(CNS(=O)(=O)Cc1ccccc1)NCc1ccccc1 | 12.9 µg/mL (≈ 40.5 µM) |
| Cc1ccccc1C(=O)Nc1cccc(NC(=O)c2cccs2)c1 | 17.7 µg/mL (≈ 52.6 µM) |
| CN1CCN(c2ccc(S(=O)(=O)N3CCOCC3)cc2NC(=O)CSCc2ccccc2)CC1 | > 75.7 µg/mL |
| CN(C(=S)Nc1cccnc1)c1ccc(O)cc1 | 29 µg/mL (≈ 112 µM) |
| O=C(COC(=O)c1cccs1)Nc1ccccc1[N+](=O)[O-] | 2 µg/mL (≈ 6.53 µM) |
| O=C(O)C1=C(C(=O)Nc2cc(C(F)(F)F)ccc2Cl)CCCC1 | 12.5 µg/mL (≈ 35.9 µM) |
| CC(OC(=O)c1ccco1)C(=O)Nc1ncc(Cl)cc1Cl (centres undefined) | 49.2 µg/mL (≈ 149 µM) |
| COc1ccccc1N1CCN(C(=O)c2c(C)noc2C)CC1 | > 47.3 µg/mL |
| COc1ccc(Cl)cc1NC(=O)CSc1cccc[n+]1[O-] | > 48.7 µg/mL |
| S=c1[nH]c2ccccc2n1CCOc1ccccc1 | 20.2 µg/mL (≈ 74.7 µM) |
| CC(C)CNS(=O)(=O)c1cc(C(=O)O)c(Cl)cc1Cl | > 48.9 µg/mL |
| Cc1cnc(C(=O)NCCc2ccc(Cl)cc2)cn1 | 36 µg/mL (≈ 131 µM) |
| COc1ccc(CNc2nccs2)cc1OC | > 37.5 µg/mL |
| Cc1cccc(OCCCC(=O)NC2CCCCC2)c1 | 14.1 µg/mL (≈ 51.2 µM) |
| COc1ccc(-n2c(C)nc3ccccc3c2=O)c([N+](=O)[O-])c1 | 39.4 µg/mL (≈ 127 µM) |
| N=c1c2c(ncn1CCCO)Oc1cc(O)ccc1C2c1ccccc1 (centres undefined) | 35.3 µg/mL (≈ 101 µM) |
| C=CCNc1nc(C(=O)OCC(=O)c2ccccc2)cs1 | 4.5 µg/mL (≈ 14.9 µM) |
| O=C(CN1C(=O)NC2(CCCCC2)C1=O)N1CCOCC1 | > 44.3 µg/mL |
| CCc1ccc(-c2cnc3nc[nH]c(=O)c3n2)cc1 | > 37.8 µg/mL |

| SMILES | solubility kinetic |
| --- | --- |
| CS(=O)(=NS(=O)(=O)c1ccc(Cl)cc1)c1ccccc1 (centres undefined) | > 49.5 µg/mL |
| Cc1cc2c(cc1C)C(c1ccccc1F)CC(=O)N2 (centres undefined) | < 0.6 µg/mL |
| Cc1c(Cl)cccc1Nc1ccccc1C(=O)O | > 39.3 µg/mL |
| CCOC(=O)Cc1csc(NC(=O)/C=C/c2ccccc2Cl)n1 | < 0.4 µg/mL |
| CCC(=O)Nc1cccc(C(=O)OC)c1 | 29.4 µg/mL (≈ 142 µM) |
| CC1=NOC(=O)/C1=C\c1ccc2c(c1)OCO2 | 32 µg/mL (≈ 138 µM) |
| COc1ccc(C(=O)NC2CCN(C(=O)Nc3ccc(F)cc3)CC2)cc1 | 0.9 µg/mL (≈ 2.42 µM) |
| Cc1cc(=O)[nH]c(SCC(=O)N2CCCC2)n1 | > 38 µg/mL |
| O=C(CN1CCN(c2ccccc2F)CC1)NC(=O)NC1CCCCC1 | > 54.4 µg/mL |
| Cc1cccc(C)c1N(CC(=O)N1CCOCC1)S(C)(=O)=O | > 49 µg/mL |
| Cc1ccccc1-n1c(O)c(/C=N/NC(=O)c2ccncc2)c(=O)[nH]c1=O | > 54.8 µg/mL |
| O=C(O)c1cccc(NC2=C(N3CCOCC3)C(=O)c3ccccc3C2=O)c1 | > 56.8 µg/mL |
| O=C(Nc1cccc(S(=O)(=O)N2CCOCC2)c1)c1ccc(=O)[nH]c1 | > 54.5 µg/mL |
| O=C(c1ccccc1F)N1C(=O)c2cccc3cccc1c23 | < 0.6 µg/mL |
| Cc1ccc(NC(=O)Nc2cc(S(C)(=O)=O)ccc2Cl)cc1 | 1.1 µg/mL (≈ 3.25 µM) |
| COC(=O)c1cccnc1NC(=S)NC1CCCCC1 | 0.9 µg/mL (≈ 3.07 µM) |
| O=C(CNC(=O)c1cccs1)OCc1c(F)cccc1Cl | 42.4 µg/mL (≈ 129 µM) |
| CCOC(=O)N1CCN(CCCc2ccccc2)CC1 | 30.9 µg/mL (≈ 112 µM) |
| O=C(C1CCCO1)N1CCN(c2ccccn2)CC1 (centres undefined) | 36.8 µg/mL (≈ 141 µM) |
